From article PMC7312527 (International Journal of Molecular Sciences, 2020)

How the values were obtained:
SH-SY5Y cells [1] = assay: Neuroprotection against oxidative stress induced by H2O2 (MTT); type: cell-based, human; conditions: H2O2 100 µM
BuChE from equine serum = BuChE from equine serum (Equus caballus, UniProt P81908); assay: biochemical
SH-SY5Y cells [2] = assay: Neuroprotection against rotenone/oligomycin A, co-incubation (MTT); type: cell-based, human; conditions: R/O mixture
[3] = In vivo acute oral toxicity (OECD 423); conditions: female, Balb/c, mouse, in vivo, mice, read-out: LD50 cut-off values
Description: (§1) Compound 3c was given orally (by gavage) in fixed doses, 5, 50, 300, or 2000 mg/kg body weight, at each stage of the study. Compound 3c was administered at an initial dose of 300 mg/kg, as its toxicity was unknown. According to the graph from the Organization for Economic Cooperation and Development (OCED) 423 guideline, six test stages might be performed. Three animals (female mice Balb/c) take part in each stage. The number of stages depends on the deaths of mice, which is the final test parameter. Results allowed for the classification of compound 3c into a Globally Harmonized Classification System for Chemical Substances and Mixtures (GHS) category. Moreover, the LD50 cut-off values were determined. The research was carried out on the basis of the agreement of the Local Ethical Committee for animal testing in Łódź No. 56/115 ŁB/2018. Compound 3c was administrated in a first dose of 300 mg/kg of body weight.
(§2) The testing protocol is as follows: After the initial dose of 300 mg/kg body weight, if 2–3 mice die, the compound is given at a lower dose (50 mg/kg). The lowest dose (5 mg/kg) is administrated if 2–3 animals die after the 50 mg/kg dose. If there are no deaths or only one mouse dies after administration of the 300 mg/kg dose, the compound is given again at the same dose (300 mg/kg). If there are no deaths again, the highest dose (2000 mg/kg) is given. After each dose, the mice are observed for 14 days. […]

female mice Balb/c = assay: In vivo acute oral toxicity (OECD 423)
Description: as §1, §2

[4] = target: T1, AChE–BACE-1A protein pair (Homo sapiens, UniProt P22303+P56817); assay: Yeast three-hybrid (Y3H) test and β-galactosidase assay, AChE–BACE-1A; type: cell-based
T1 construct: pGBKT7-hAChE plasmid contained the cDNA fragment encoding for aa 52–577; N-terminal domain (aa 46–457) of BACE1A (GenBank: AF204943.1); host or cells: Saccharomyces cerevisiae Y2HGold (bait) mated with Y187 (prey)
T1 sequence (P22303 52-577): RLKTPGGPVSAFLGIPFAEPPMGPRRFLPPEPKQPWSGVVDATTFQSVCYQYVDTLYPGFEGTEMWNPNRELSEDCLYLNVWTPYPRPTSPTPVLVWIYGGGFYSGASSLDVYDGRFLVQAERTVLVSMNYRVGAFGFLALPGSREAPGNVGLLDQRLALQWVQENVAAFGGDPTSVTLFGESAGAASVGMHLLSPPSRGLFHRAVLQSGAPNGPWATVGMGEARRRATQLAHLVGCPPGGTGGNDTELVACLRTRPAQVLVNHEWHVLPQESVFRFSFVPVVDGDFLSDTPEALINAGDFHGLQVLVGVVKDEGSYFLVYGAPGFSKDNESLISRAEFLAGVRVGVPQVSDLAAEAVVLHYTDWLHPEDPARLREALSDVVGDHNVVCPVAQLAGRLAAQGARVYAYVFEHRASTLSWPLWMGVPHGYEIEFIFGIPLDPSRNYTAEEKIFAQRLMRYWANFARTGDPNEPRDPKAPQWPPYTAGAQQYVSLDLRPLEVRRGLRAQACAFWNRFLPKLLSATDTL
T1 sequence (P56817 46-457): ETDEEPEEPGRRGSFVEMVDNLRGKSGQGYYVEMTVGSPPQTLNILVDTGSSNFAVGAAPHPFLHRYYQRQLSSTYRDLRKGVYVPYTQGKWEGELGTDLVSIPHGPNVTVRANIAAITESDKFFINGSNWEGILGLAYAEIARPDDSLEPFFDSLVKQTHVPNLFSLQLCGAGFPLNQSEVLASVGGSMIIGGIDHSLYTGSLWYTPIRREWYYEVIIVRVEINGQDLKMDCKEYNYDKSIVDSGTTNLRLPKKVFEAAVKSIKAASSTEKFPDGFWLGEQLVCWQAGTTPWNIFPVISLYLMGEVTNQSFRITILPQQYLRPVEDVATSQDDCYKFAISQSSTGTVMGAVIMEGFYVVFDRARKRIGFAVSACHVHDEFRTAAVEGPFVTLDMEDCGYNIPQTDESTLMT
Description: The putative induction of interactions between hybrid ligands and five selected proteins was evaluated by the Y3H method. […]. The company maintained cDNA synthesis and cloning of inserts in a proper frame, such as the NdeI/BamHI fragments into the pGBKT7 (AChE) or pGADT7 (A4, BACE1A, MAO B, MAPT) vectors. Moreover, the yeast codon optimization was realized to facilitate the high expression of human recombinant proteins in Saccharomyces cerevisiae. The cDNA encoding for human AChE (GenBank M55040.1) was modified by removing the fragments for a signal peptide (aa 1–51) and the domain responsible for protein tetramerization (aa 578–611). […]
The putative protein–protein interactions between bait (AChE) and the four preys (A4, BACE1A, MAO B, and MAPT) were analyzed by the small-scale mating procedure (5mL) based on the Matchmaker Gold yeast two-hybrid system manual recommendations. […]
The yeast β-galactosidase assay kit (ThermoFisher Scientific, USA) was applied to quantitatively analyze the strength of the hybrid-ligand induced interactions.
To evaluate the β-galactosidase activity in the yeast culture, the yeast β-galactosidase microplate assay protocol (stopped) was used according to the manufacturer’s instructions. […] The optical densities at 660 nm and absorbance at 420 nm were evaluated by (Synergy H1, Biotek). In the quantitative β-galactosidase assay, the hybrid ligand 3c was used. […]

EeAChE = EeAChE (Electrophorus electricus, UniProt O42275); assay: Kinetic characterization of EeAChE inhibition (Lineweaver–Burk plot); type: biochemical; conditions: inhibitor 25, 75, 100 nM
EeAChE, sequence (O42275 24-633): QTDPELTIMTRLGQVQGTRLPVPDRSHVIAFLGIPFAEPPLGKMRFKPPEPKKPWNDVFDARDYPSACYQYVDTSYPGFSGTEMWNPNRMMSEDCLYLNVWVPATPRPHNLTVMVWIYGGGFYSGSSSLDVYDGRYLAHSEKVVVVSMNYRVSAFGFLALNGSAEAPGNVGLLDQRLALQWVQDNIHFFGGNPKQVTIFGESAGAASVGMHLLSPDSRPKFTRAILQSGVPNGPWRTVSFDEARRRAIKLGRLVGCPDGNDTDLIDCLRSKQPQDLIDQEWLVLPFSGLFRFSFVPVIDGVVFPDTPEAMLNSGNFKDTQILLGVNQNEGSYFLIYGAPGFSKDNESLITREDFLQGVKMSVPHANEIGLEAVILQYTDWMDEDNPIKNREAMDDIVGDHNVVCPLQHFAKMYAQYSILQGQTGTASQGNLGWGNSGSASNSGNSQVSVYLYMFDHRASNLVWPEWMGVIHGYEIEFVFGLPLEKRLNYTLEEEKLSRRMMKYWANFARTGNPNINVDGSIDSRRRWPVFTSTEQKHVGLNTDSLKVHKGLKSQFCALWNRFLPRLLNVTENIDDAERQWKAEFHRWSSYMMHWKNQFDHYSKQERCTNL
Description: Compound 3e was selected and kinetic studies were performed similar to the enzyme inhibition assay. […]. 0.05–0.5 mM). All processes were assayed in triplicate.

SH-SY5Y cells [5] = assay: Neuroprotection against rotenone/oligomycin A, pre-incubation (MTT); type: cell-based, human; conditions: R/O mixture, 0.0001 µM

BuChE from equine serum, sequence (P81908 whole entry): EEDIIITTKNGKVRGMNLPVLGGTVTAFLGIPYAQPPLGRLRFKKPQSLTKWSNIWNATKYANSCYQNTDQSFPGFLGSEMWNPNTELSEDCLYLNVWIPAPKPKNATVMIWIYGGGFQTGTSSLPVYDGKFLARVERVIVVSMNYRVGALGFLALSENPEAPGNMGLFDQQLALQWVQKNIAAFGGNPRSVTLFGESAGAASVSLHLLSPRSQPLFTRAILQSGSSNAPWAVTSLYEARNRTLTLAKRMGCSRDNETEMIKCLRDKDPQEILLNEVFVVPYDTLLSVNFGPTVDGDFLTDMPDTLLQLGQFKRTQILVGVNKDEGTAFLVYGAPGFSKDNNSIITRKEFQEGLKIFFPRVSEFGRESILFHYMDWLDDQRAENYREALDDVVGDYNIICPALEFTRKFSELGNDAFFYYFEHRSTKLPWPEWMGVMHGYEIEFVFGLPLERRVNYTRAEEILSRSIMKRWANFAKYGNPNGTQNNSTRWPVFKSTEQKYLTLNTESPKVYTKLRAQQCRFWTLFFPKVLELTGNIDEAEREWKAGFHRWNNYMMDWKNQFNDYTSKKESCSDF

Question: With O=C(NCCCCNc1c2c(nc3ccccc13)CCCC2)c1cc(Cl)cc(Cl)c1 [Compound 3c] as the molecule, how does the neuroprotection (SH-SY5Y cells [1]; compound 0.01 µM) read?
Answer: 46.17%

Question: What about the neuroprotection (SH-SY5Y cells [1]; compound 0.1 µM) of the same molecule?
Answer: 36.48%

Question: And the neuroprotection (SH-SY5Y cells [1]; compound 1 µM)?
Answer: 0%

Question: What about the neuroprotection (SH-SY5Y cells [1]; compound 10 µM) of the same molecule?
Answer: 0%

Question: What about the “Selectivity for BuChE” value (BuChE from equine serum; IC50(AChE)/IC50(BuChE)) of the same molecule?
Answer: 0.206

Question: What about the IC50 (BuChE from equine serum; means ± SD of three independent experiments, read-out: EqBuChE IC50 ± SD) of the same molecule?
Answer: 123 ± 11 nM

Question: And the neuroprotection (SH-SY5Y cells [2]; 0.0001 µM)?
Answer: 29.10%

Question: What about the neuroprotection (SH-SY5Y cells [2]; 0.001 µM) of the same molecule?
Answer: 22.11%

Question: And the neuroprotection (SH-SY5Y cells [2]; 0.01 µM)?
Answer: 12.90%

Question: And the neuroprotection (SH-SY5Y cells [2]; 0.1 µM)?
Answer: 10.99%

Question: And the LD50 at 14 days [3]?
Answer: 500 mg/kg

Question: What about the “GHS (Globally Harmonized System) Category” value (female mice Balb/c) of the same molecule?
Answer: 4

Question: What about the deaths (female mice Balb/c; 300 mg/kg, first and second stages) of the same molecule?
Answer: did not cause any deaths

Question: What about the deaths (female mice Balb/c; 2000 mg/kg, first stage) of the same molecule?
Answer: all three mice died

Question: What about the “hybrid ligand-mediated interaction AChE–BACE-1A (colonies on DDO/X/A plates)” value ([4]; 10 µM hybrid ligand) of the same molecule?
Answer: interaction between AChE and BACE-1 is mediated by hybrid ligand 3c

Question: What about the “activity of β-galactosidase” value ([4]; AChE–BACE-1A, 10 μM ligand, yeast grown 96 h) of the same molecule?
Answer: 88.69 ± 2.57 units

Question: And the “inhibition type of EeAChE” value (EeAChE)?
Answer: mixed-type inhibition

Question: What about the neuroprotection (SH-SY5Y cells [5]) of the same molecule?
Answer: 2.84%
